In patent US20170050980A1, “OXADIAZINE COMPOUNDS AND METHODS OF USE THEREOF” (FORUM Pharmaceuticals Inc., priority 2015, published 2017):

Test system: Aβ42
Assay: In vitro cell screening assay; quantification of Aβ (1-42) peptide by sandwich ELISA
Assay type: cell-based
Settings: Human neuroglioma H4 cells stably expressing human wild type APP751; compounds 0.003-10 μM, incubated overnight (16-18 h); Aβ42 in supernatant by sandwich ELISA; normalized to DMSO and DAPT; read-out: Aβ42 H4 Prot Fre IC50
Method: Human neuroglioma H4 cells were transfected with a pcDNA3.1 plasmid expressing human wild type APP751 cDNA and a stable cell line was generated using G418 selection. Cells were plated at 15,000 cells/well in Costar 96-well plates and placed at 37° C. and 5% CO2. Six hours after plating, cells were washed three times with Pro293™ chemically defined medium, followed by addition of compounds (0.003-10 μM, final DMSO concentration of 0.33%). Plates were incubated overnight (16-18 h) and supernatant was removed for quantification of Aβ peptides by sandwich ELISA. Cytotoxicity was evaluated using Cell-Titer 96W AQueous One Solution Cell Proliferation Assay according to the manufacturer's protocol.
Aβ peptide levels were quantified by sandwich ELISA. 96-well plates were coated with C-terminal specific Aβ antibodies recognizing either Aβ37, Aβ38, Aβ40, Aβ42, Aβ43 or a N-terminal specific Aβ antibody to detect Aβ 1-x. Plates were then blocked overnight at 4° C. with 1% bovine serum albumin (BSA) in PBS-T. Plates were washed and 100 μl of cultured cell supernatant or synthetic Aβ peptide standards and a detection antibody (4G8-HRP) were applied to the blocked plate and incubated overnight at 4° C. The next day, wells were washed before the addition of detection substrate (TMB peroxidase). Plates were then read for absorbance at 450 nm on a Molecular Devices SpectraMax M5e Microplate Reader.
Compound-treated samples were normalized to samples treated with DMSO alone (no inhibition) and to samples treated with DAPT. IC50 values were calculated from values reported as percent of DMSO controls using nonlinear regression, based on a sigmoidal dose—response (variable slope) model. […] used for calculation.

| Structure (SMILES) | IC50 [nM] |
| --- | --- |
| COc1nc(C2=NOCC3CN(c4ccc(Cl)cc4C(F)(F)F)CCN23)ccc1-n1cnc(C)c1 (single isomer, unassigned) [Example 36A, 8-(4-chloro-2-(trifluoromethyl)phenyl)-4-(6-methoxy-5-(4-methyl-1H-imidazol-1-yl)pyridin-2-yl)-1,6,7,8,9,9a-hexahydropyrazino [1,2-d] [1,2, 4] oxadiazine] | 64 |
| COc1nc(C2=NOCC3CN(c4ccc(Cl)cc4C(F)(F)F)CCN23)ccc1-n1cnc(C)c1 (single isomer, unassigned) [Example 36B, 8-(4-chloro-2-(trifluoromethyl)phenyl)-4-(6-methoxy-5-(4-methyl-1H-imidazol-1-yl)pyridin-2-yl)-1,6,7,8,9,9a-hexahydropyrazino [1,2-d] [1,2,4] oxadiazine] | 307 |
| COc1nc(C2=NOC(C)C(c3cccc(Cl)c3)N2)ccc1-n1cnc(C)c1 (single isomer, unassigned) [Example 41A, 5-(3-chlorophenyl)-3-(6-methoxy-5-(4-methyl-1H-imidazol-1-yl)pyridin-2-yl)-6-methyl-5,6-dihydro-4H-1,2,4-oxadiazine] | 1430 |
| COc1nc(C2=NOC(C)C(c3cccc(Cl)c3)N2)ccc1-n1cnc(C)c1 (single isomer, unassigned) [Example 41B, 5-(3-chlorophenyl)-3-(6-methoxy-5-(4-methyl-1H-imidazol-1-yl)pyridin-2-yl)-6-methyl-5,6-dihydro-4H-1,2,4-oxadiazine] | 14.2 |
| COc1nc(C2=NOC(C)C(c3cc4ccc(Cl)cc4o3)N2)ccc1-n1cnc(C)c1 (single isomer, unassigned) [Example 46A, 5-(6-chlorobenzofuran-2-yl)-3-(6-methoxy-5-(4-methyl-1H-imidazol-1-yl)pyridin-2-yl)-6-methyl-5,6-dihydro-4H-1,2,4-oxadiazine] | 225 |
| COc1nc(C2=NOC(C)C(c3cc4ccc(Cl)cc4o3)N2)ccc1-n1cnc(C)c1 (single isomer, unassigned) [Example 46B, 5-(6-chlorobenzofuran-2-yl)-3-(6-methoxy-5-(4-methyl-1H-imidazol-1-yl)pyridin-2-yl)-6-methyl-5,6-dihydro-4H-1,2,4-oxadiazine] | 5.1 |
| COc1nc(C2=NOC(C)C(c3cc4ccc(Cl)cc4o3)N2)ccc1-n1cnc(C)c1 (single isomer, unassigned) [Example 46C, 5-(6-chlorobenzofuran-2-yl)-3-(6-methoxy-5-(4-methyl-1H-imidazol-1-yl)pyridin-2-yl)-6-methyl-5,6-dihydro-4H-1,2,4-oxadiazine] | 291 |
| COc1nc(C2=NOC(C)C(c3cc4ccc(Cl)cc4o3)N2)ccc1-n1cnc(C)c1 (single isomer, unassigned) [Example 46D, 5-(6-chlorobenzofuran-2-yl)-3-(6-methoxy-5-(4-methyl-1H-imidazol-1-yl)pyridin-2-yl)-6-methyl-5,6-dihydro-4H-1,2,4-oxadiazine] | 2.8 |
| COc1nc(C2=NOC(C)C(c3cn(C)c4ncc(C(F)(F)F)cc34)N2)ccc1-n1cnc(C)c1 (single isomer, unassigned; (+)) [44B or 45B, (+)-3-(6-methoxy-5-(4-methyl-1H-imidazol-1-yl)pyridin-2-yl)-6-methyl-5-(1-methyl-5-(trifluoromethyl)-1H-pyrrolo[2,3-b]pyridin-3-yl)-5,6-dihydro-4H-1,2,4-oxadiazine] | 8.2 |
| COc1nc(C2=NOC(C)C(c3cn(C)c4ncc(C(F)(F)F)cc34)N2)ccc1-n1cnc(C)c1 (single isomer, unassigned; (+)) [44D or 45D, (+)-3-(6-methoxy-5-(4-methyl-1H-imidazol-1-yl)pyridin-2-yl)-6-methyl-5-(1-methyl-5-(trifluoromethyl)-1H-pyrrolo[2,3-b]pyridin-3-yl)-5,6-dihydro-4H-1,2,4-oxadiazine] | 4.3 |
| COc1nc(C2=NOC(C)C(c3cn(C)c4cc(F)c(Cl)cc34)N2)ccc1-n1cnc(C)c1 (single isomer, unassigned; (+)) [Example 21B, (+)-5-(5-chloro-6-fluoro-1-methyl-1H-indol-3-yl)-3-(6-methoxy-5-(4-methyl-1H-imidazol-1-yl)pyridin-2-yl)-6-methyl-5,6-dihydro-4H-1,2,4-oxadiazine] | 3 |
| COc1nc(C2=NOC(C)C(c3cn(C)c4cc(F)c(Cl)cc34)N2)ccc1-n1cnc(C)c1 (single isomer, unassigned; (+)) [Example 21D, (+)-5-(5-chloro-6-fluoro-1-methyl-1H-indol-3-yl)-3-(6-methoxy-5-(4-methyl-1H-imidazol-1-yl)pyridin-2-yl)-6-methyl-5,6-dihydro-4H-1,2,4-oxadiazine] | 2 |
| COc1nc(C2=NOC(C)(C)C(c3ccccc3)N2)ccc1-n1cnc(C)c1 (single isomer, unassigned; (+)) [Example 22B, (+)-3-[6-methoxy-5-(4-methyl-1H-imidazol-1-yl)pyridin-2-yl]-6,6-dimethyl-5-phenyl-5,6-dihydro-4H-1,2,4-oxadiazine] | 75 |
| COc1nc(C2=NOC(C)(C)C(c3ccc(Cl)cc3)N2)ccc1-n1cnc(C)c1 (single isomer, unassigned; (+)) [Example 23B, (+)-5-(4-chlorophenyl)-3-[6-methoxy-5-(4-methyl-1H-imidazol-1-yl)pyridin-2-yl]-6,6-dimethyl-5,6-dihydro-4H-1,2,4-oxadiazine] | 23 |
| COc1nc(C2=NOC3(CC3)C(c3ccc(Cl)cc3)N2)ccc1-n1cnc(C)c1 (single isomer, unassigned; (+)) [Example 25B, (+)-8-(4-chlorophenyl)-6-[6-methoxy-5-(4-methyl-1H-imidazol-1-yl)pyridin-2-yl]-4-oxa-5,7-diazaspiro[2.5]oct-5-ene] | 26 |
| COc1nc(C2=NOCC(C)(c3cn(C)c4ccccc34)N2)ccc1-n1cnc(C)c1 (single isomer, unassigned; (+)) [Example 26A, (+)-3-[3-[6-methoxy-5-(4-methyl-1H-imidazol-1-yl)pyridin-2-yl]-5-methyl-5,6-dihydro-4H-1,2,4-oxadiazin-5-yl]-1-methyl-1H-indole] | 48 |
| COc1nc(C2=NOCC(c3c4n(c5ccc(Cl)cc35)CCOC4)N2)ccc1-n1cnc(C)c1 (single isomer, unassigned; (+)) [Example 28A, (+)-8-chloro-10-(3-(6-methoxy-5-(4-methyl-1H-imidazol-1-yl)pyridin-2-yl)-5,6-dihydro-4H-1,2,4-oxadiazin-5-yl)-3,4-dihydro-1H-[1,4]oxazino[4,3-a]indole] | 5.3 |
| COc1nc(C2=NOCC(c3cn(C)c4ccc(C5CCOCC5)cc34)N2)ccc1-n1cnc(C)c1 (single isomer, unassigned; (+)) [Example 29B, (+)-3-(6-methoxy-5-(4-methyl-1H-imidazol-1-yl)pyridin-2-yl)-5-(1-methyl-5-(tetrahydro-2H-pyran-4-yl)-1H-indol-3-yl)-5,6-dihydro-4H-1,2,4-oxadiazine] | 20.5 |
| COc1nc(C2=NOCC(c3c4n(c5ccccc35)CCOC4)N2)ccc1-n1cnc(C)c1 (single isomer, unassigned; (+)) [Example 30B, (+)-10-(3-(6-methoxy-5-(4-methyl-1H-imidazol-1-yl)pyridin-2-yl)-5,6-dihydro-4H-1,2,4-oxadiazin-5-yl)-3,4-dihydro-1H-[1,4]oxazino[4,3-a]indole] | 16.9 |
| COc1nc(C2=NOC(C)C(c3cn(C)c4cc(F)c(F)cc34)N2)ccc1-n1cnc(C)c1 (single isomer, unassigned; (+)) [Example 39A, (+)-5-(5,6-difluoro-1-methyl-1H-indol-3-yl)-3-(6-methoxy-5-(4-methyl-1H-imidazol-1-yl)pyridin-2-yl)-6-methyl-5,6-dihydro-4H-1,2,4-oxadiazine] | 5.4 |
| COc1nc(C2=NOC(C)C(c3cn(C)c4cc(F)c(F)cc34)N2)ccc1-n1cnc(C)c1 (single isomer, unassigned; (+)) [Example 39D, (+)-5-(5,6-difluoro-1-methyl-1H-indol-3-yl)-3-(6-methoxy-5-(4-methyl-1H-imidazol-1-yl)pyridin-2-yl)-6-methyl-5,6-dihydro-4H-1,2,4-oxadiazine] | 4.4 |
| COc1nc(C2=NOC(C)C(c3ccc(Cl)cc3)N2)ccc1-n1cnc(Cl)c1 (single isomer, unassigned; (+)) [Example 42B, (+)-3-(5-(4-chloro-1H-imidazol-1-yl)-6-methoxypyridin-2-yl)-5-(4-chlorophenyl)-6-methyl-5,6-dihydro-4H-1,2,4-oxadiazine] | 18.4 |
| COc1cc(C2=NOC(C)C(c3ccc(Cl)cc3)N2)ccc1-n1cnc(C)c1 (single isomer, unassigned; (+)) [Example 43B, (+)-5-(4-chlorophenyl)-3-(3-methoxy-4-(4-methyl-1H-imidazol-1-yl)phenyl)-6-methyl-5,6-dihydro-4H-1,2,4-oxadiazine] | 80.5 |
